Results published in patent US8173595B2, “Methods and compositions for the inhibition of thrombus formation” (The Board of Trustees of the University of Illinois, priority 2004, dated 2012).
Where no end group is shown, it is not given here. [ ]: non-standard residue; d: D form. The star is where a group is joined. Myristoyl = CCCCCCCCCCCCCC(=O)*; pS = N[C@@H](COP(=O)(O)O)C(=O)O

Experiments:
[1] = tested on: platelets (platelet-rich plasma from healthy donors); assay: Ristocetin-induced (vWF-dependent) platelet aggregation in platelet-rich plasma; format: cell-based, human
Description: (§1) Platelet preparation and aggregation. Blood was drawn from healthy donors, and was anti-coagulated with 1/10 volume of 3.8% trisodium citrate. Platelet-rich plasma (PRP) was obtained by centrifugation at 300×g for 20 min at 22° C. Platelet aggregation was measured using a turbidometric platelet aggregometer at 37° C. with a stirring speed at 1000 rpm. To examine the effects of peptides, various concentrations of each peptide was preincubated with platelets at 22° C. for 5 min. In some experiments, intergrin inhibitor RGDS (1 mM) was also added to exclude the roles of β3 integrins.

[2] = biological target: T1, 14-3-3 binding to GPIb-IX (Homo sapiens, UniProt P63104); assay: Binding of GPIb-IX from platelet lysates to 14-3-3-conjugated beads (Western blot); settings: recombinant 14-3-3-MBP beads, FIG. 1B
T1 construct: GPIb-IX: platelet lysate
T1 sequence (P63104 1-245): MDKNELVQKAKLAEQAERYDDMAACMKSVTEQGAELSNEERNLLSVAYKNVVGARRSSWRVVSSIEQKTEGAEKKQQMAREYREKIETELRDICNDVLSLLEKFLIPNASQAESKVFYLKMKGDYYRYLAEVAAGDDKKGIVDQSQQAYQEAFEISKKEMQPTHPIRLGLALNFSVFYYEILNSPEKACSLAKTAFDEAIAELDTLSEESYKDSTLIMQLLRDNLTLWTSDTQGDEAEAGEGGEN
Description: 14-3-3 binding to GPIb-IX. Binding of GPIb-IX to 14-3-3-conjugated beads were performed as previously described (Du et al., J. Biol. Chem., 271:7362-7367 (1996)). Briefly, 14-3-3-conjugated Sepharose 4B beads and maltose-binding protein (MBP)-conjugated control beads were preincubated with various concentrations of synthetic peptides at 4° C. for 1 h, and then with platelet lysates for an additional 1 h. The beads were washed three times. Bound GPIb-IX was detected by Western blot with a monoclonal antibody against GPIbα, WM23.

[3] = tested on: GPIb-IX-dependent platelet agglutination; assay: Ristocetin-induced GPIb-IX-specific platelet agglutination in the presence of RGDS; format: cell-based, human; settings: PRP, in the presence of 1 mM RGDS, ristocetin 1.25 mg/ml, FIG. 2A, 2B
Description: as §1

platelet adhesion to vWF = assay: Platelet adhesion under flow in vWF-coated glass capillaries; format: cell-based; settings: washed platelets, in the presence of RGDS, FIG. 4A
Description: Platelet adhesion under flow. Washed platelets (3×10^8/ml) were preincubated with various concentrations of synthetic peptides at 22° C. for 10 min, the platelets were perfused into the vWF-coated glass capillaries using a PhD syringe pump (Harvard Apparatus Inc.) at various shear rates for 8 min. Transient adhesion of platelets on the vWF-coated surface was recorded on video cassette recorder. Adherent platelets were counted in 10 randomly selected fields of 0.25 mm^2 within a 10 second time period.

Tail-bleeding time = format: in vivo, C57 black mice; settings: infused into jugular vein, 5 min circulation, compared with MαC or MαCsc, p<0.0001, FIG. 4B
Description: Tail-bleeding time. Bleeding times were performed with 6-8-wk-old adult C57 black mice anesthetized with an intraperitoneal injection of avertin. The internal jugular vein was surgically exposed, and a total volume of 50 μl of a peptide (5 mM) was infused using a 27 G needle. Experiments were performed in a double-blinded fashion. After 5 min, tails were amputated 5 mm from the tail tip, and immersed in a tube containing 0.15M NaCl maintained at 37° C. Bleeding was visually followed and timed. Maximum bleeding time allowed was 10 min after which the tail was cauterized. Statistical differences between the groups were examined using Mann-Whitney test and InStat software.

[4] = tested on: platelets (platelet-rich plasma); assay: Platelet aggregation induced by ADP, collagen or thromboxane A2 analog U46619; format: cell-based, human; settings: collagen, thromboxane A2 analog U46619, FIGS. 2C, 2D, 2E
Description: as §1

platelets = assay: Botrocetin-induced platelet agglutination; format: cell-based
[5] = tested on: vWF binding to GPIb-IX on washed human platelets; assay: Flow cytometry analysis of ristocetin-induced vWF binding to platelets; format: cell-based; settings: 10 mM EDTA or RGDS, ristocetin 1 mg/ml, FIG. 3
Description: Flow cytometry analysis of VWF binding to platelets. Flow cytometry analysis of vWF binding to platelets has been described previously 8,9. Washed platelets (1.0×10^7/ml) were prepared as described previously (Englund et al., J. Biol. Chem., 276:16952-16959 (2001); Bodnar et al., J. Biol. Chem. 277:47080-47087 (2002)), and resuspended in phosphate-buffered saline (PBS) solution (0.01 M NaH2PO4, 0.15 M NaCl, pH 7.4) containing 10 mM EDTA and 1% BSA. Platelets were preincubated with various concentrations of synthetic peptides at 22° C. for 10 min before incubating with purified vWF (35 μg/ml) and ristocetin (1.0 mg/ml) at 22° C. for 30 min. Platelets were washed once, further incubated in the same buffer containing 10 μg/ml FITC-labeled SZ-29 in the dark at 22° C. for 30 min and then analyzed by flow cytometry. As negative controls, platelets were incubated in the presence of ristocetin alone then incubated with FITC-labeled SZ29.

## CCCCCCCCCCCCCC(=O)OC(=O)CCCCCCCCCCCCC [myristic anhydride (MA), myristic anhydride]
[1]; PRP, 100 μM, FIG. 1D, 1E
  ristocetin-induced platelet aggregation: no effect

## C13H27CONH-LSISYGSHR (Myristoyl-LSISYGSHR) [MαCsc, myristoylated scrambled control peptide]
[1]; PRP, 100 μM, FIG. 1D, 1E
  ristocetin-induced platelet aggregation: no significant effect
[2]
  binding of GPIb-IX to 14-3-3 beads: not

## C13H27CONH-SIRYSGHDL (Myristoyl-SIRYSGHDL) [MSDαC, myristoylated peptide replacing phosphorylated serine 609 with aspartic acid to simulate phosphoserine]
[1]; PRP preincubated at room temperature for 5 min, FIG. 5
  ristocetin-induced platelet aggregation: completely inhibited

## C13H27CONH-SIRYSGHSL (Myristoyl-SIRYSGHSL) [MαC]
[1]; PRP, 100 μM, FIG. 1D, 1E
  ristocetin-induced platelet aggregation: no significant effect
[2]
  binding of GPIb-IX to 14-3-3 beads: not

## C13H27CONH-SIRYSGHpSL (Myristoyl-SIRYSGH[pS]L) [MPαC]
[3]
  ristocetin-induced platelet agglutination: completely inhibited
Platelet adhesion to vWF
  adhesion of platelets on vWF surface under flow: almost no adhesion
Tail-bleeding time
  median tail bleeding time: significantly prolonged
[4]
  platelet aggregation induced by platelet agonists: no inhibitory effect
platelets
  botrocetin-induced platelet agglutination: inhibited
[1]; PRP preincubated with increasing concentrations of peptide, FIG. 1C
  vWF-dependent platelet aggregation induced by ristocetin: dose-dependently inhibited
[5]
  ristocetin-induced vWF binding to platelets: inhibited
[2]
  binding of GPIb-IX to 14-3-3 beads: abolished

## SIRYSGHpSL [PαC]
[1]; PRP, 100 μM, FIG. 1D, 1E
  ristocetin-induced platelet aggregation: no effect
